According to patent US20250171417A1, “HETEROCYCLIC DERIVATIVE, AND COMPOSITION AND PHARMACEUTICAL USE THEREOF” (Xizang Haisco Pharmaceutical Co., Ltd., priority 2021, published 2025):

Legend:
[1] = Pharmacokinetic test in rats; assay type: in vivo; settings: rat, plasma, po, male SD rats; for bioavailability: i.g. 5 mg/kg vs intravenous 2 mg/kg; for AUC(0-t): i.g. 5 mg/kg
Method: Test objective: In this experiment, a single dose of each test compound was administered to SD rats intravenously and intragastrically, and the concentrations of the test compounds in plasma of rats were measured to evaluate the pharmacokinetic characteristics of the test compounds in rats.
Experimental animals: male SD rats, 200-250 g, 6-8 weeks old, 6 rats/compound, purchased from Chengdu Ddossy Experimental Animals Co., Ltd.
Experimental method: on the day of the test, 6 SD rats were randomly grouped according to their body weight; the animals were fasted with water available for 12 to 14 hours one day before the administration of a test compound, and were fed 4 hours after the administration.
Sampling: Before and after the administration, 0.1 mL of blood samples were drawn from the orbits of the animals under isoflurane anesthesia, and placed in an EDTAK2 centrifuge tube. Centrifugation was carried out at 5000 rpm at 4° C. for 10 min, and the plasma was collected.
Time points for plasma collection in IV&PO group: 0, 5 min, 15 min, 30 min, 1 h, 2 h, 4 h, 6 h, 8 h, and 24 h.
Before analysis and detection, all samples were stored at −60° C. The samples were analyzed quantitatively by LC-MS/MS.

[2] = target: T1, AR splice variant 7 (AR-V7) (Homo sapiens, UniProt P10275); test: Degradation experiment on AR splice variant 7 (AR-V7) in 22RV1 cells; assay type: cell-based; settings: 24 h
T1 construct: host or cells: 22RV1 prostate cancer cells
T1 sequence (P10275 1-644 isoform P10275-3): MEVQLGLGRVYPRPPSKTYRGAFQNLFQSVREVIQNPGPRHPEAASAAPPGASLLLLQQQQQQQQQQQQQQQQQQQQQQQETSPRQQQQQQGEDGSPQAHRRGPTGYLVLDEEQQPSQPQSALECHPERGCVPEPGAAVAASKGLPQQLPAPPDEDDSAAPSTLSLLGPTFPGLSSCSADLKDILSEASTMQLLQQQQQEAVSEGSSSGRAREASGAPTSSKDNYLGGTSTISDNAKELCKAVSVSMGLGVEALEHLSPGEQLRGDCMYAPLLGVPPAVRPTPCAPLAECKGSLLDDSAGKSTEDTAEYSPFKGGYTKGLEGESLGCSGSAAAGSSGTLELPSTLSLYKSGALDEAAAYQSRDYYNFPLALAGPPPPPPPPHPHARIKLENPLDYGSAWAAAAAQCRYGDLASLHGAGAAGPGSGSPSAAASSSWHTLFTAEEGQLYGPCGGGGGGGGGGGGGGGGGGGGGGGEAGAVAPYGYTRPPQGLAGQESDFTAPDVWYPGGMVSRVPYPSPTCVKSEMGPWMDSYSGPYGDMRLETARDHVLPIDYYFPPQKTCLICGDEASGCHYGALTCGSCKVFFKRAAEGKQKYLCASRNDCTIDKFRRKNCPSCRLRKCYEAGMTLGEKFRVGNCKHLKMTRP
Method: Prostate cancer cells 22RV1 were purchased from ATCC, the cell medium was 1640+10% FBS, and the cells were cultured in an incubator at 37° C. under 5% CO2. On day 1, the cells in an exponential phase were collected. With a 1% css-FBS phenol red-free medium, the cell suspension was adjusted to a corresponding concentration and plated into a 6-well plate at 1 mL/well and 300000 cells/well. The next day, a 1% css-FBS phenol-free medium containing the compound to be tested was added, a 1% css-FBS phenol-free medium containing 0.2% DMSO was added to one well as DMSO vehicle control, and the 6-well plate was cultured in an incubator at 37° C. under 5% CO2. After 24 h, the cells were digested with pancreatin and collected into a 1.5 mL centrifuge tube. 15 μL of RIPA lysate (containing 1× protease inhibitor cocktail) was added to each well, and the cells were lysed on ice for 15 min and then centrifuged at 12000 g at 4° C.′ for 10 min. The supernatant protein samples were collected, and protein quantification was performed by a BCA method. AR-V7 was detected using fully automatic protein expression quantitative analysis, which involved diluting the protein to be tested to 2 mg/mL, 4 μL of the diluted protein samples were added to 1 μL of 5× Master Mix (provided in the kit), and the prepared samples were denatured at 95° C. for 5 min and placed on ice for use. The primary antibodies. AR V7 (CST, 19672S) and β-actin (CST, 3700), were diluted with Antibody Diluent II (provided in the kit) at a dilution ratio of 1:10 and 1:500, respectively. The secondary antibody was a mixed goat anti-mouse and goat anti-rabbit secondary antibody in a ratio of 1:1, and the color development solution was a mixed solution of Lumino-S and Peroxide in a ratio of 1:1. The prepared reagents were successively added to an assay plate according to instructions of the kit and detected on an instrument. Western blot band processing was performed using “Compass for SW”, a fully automatic protein expression quantitative analysis software, in which western blot bands were automatically simulated based on signal values. The degradation rate of AR-V7 (4) relative to vehicle control at different compound concentrations was calculated according to formula (4), wherein AR-V7compound was the relative peak area of AR-V7 in the treated group, and AR-V7solvent was the relative peak area of AR-V7 in the vehicle control group.
DC50 calculation: the compound concentration DC50 values at which the degradation rate of AR-V7 was 50% were calculated using Graphpad software and analyzed using log (inhibitor) vs. response-Variable slope (four parameters) function according to formula (4).

[3] = tested on: Prostate cancer cells 22RV1; test: Experiment on inhibiting 22RV1 cell proliferation (CellTiter-Glo, 7 days); assay type: cell-based; settings: Homo sapiens, 168 h, 22RV1 cells, 7 days incubation, cells with nM printed beside the value, read-out: IC50 values for inhibition of 22RVI cells
Summary of the method: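 22RV1 cells at 2000/well in 1% charcoal-stripped-FBS phenol red-free medium, treated next day with compound for 7 days at 37 °C, 5% CO2. Viability by CellTiter-Glo luminescence; inhibition relative to DMSO vehicle, IC50 from dose-response fit.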

Full-length AR (AR-FL) = test: Degradation experiment on full-length AR (AR-FL) in 22RV1 cells; assay type: cell-based; settings: 2 μM, 24 h
Method: (§1) Prostate cancer cells 22RV1 were purchased from ATCC, the cell medium was 1640+10% FBS, and the cells were cultured in an incubator at 37° C. under 5% CO2. On day 1, the cells in an exponential phase were collected. With a 1% css-FBS phenol red-free medium, the cell suspension was adjusted to a corresponding concentration and plated into a 6-well plate at 1 mL/well and 100000 cells/well. The next day, a 1% css-FBS phenol-free medium containing the compound to be tested was added, a 1% css-FBS phenol-free medium containing 0.2% DMSO was added to one well as DMSO vehicle control, and the 6-well plate was cultured in an incubator at 37° C. under 5% CO2. After 24 h, the cells were digested with pancreatin and collected into a 1.5 mL centrifuge tube. […] The supernatant protein samples were collected, and protein quantification was performed by a BCA method. AR-FL and AR-Vs were detected using fully automatic protein expression quantitative analysis, which involved diluting the protein to be tested to 1 mg/mL, 4 μL of the diluted protein samples were added to 1 μL of […] (provided in the kit), and the prepared samples were denatured at 95° C. for 5 min and placed on ice for use. […] The prepared reagents were successively added to an assay plate according to instructions of the kit and detected on an instrument. […]

[4] = tested on: AR splice variants (AR-Vs); test: Degradation experiment on AR splice variants (AR-Vs) in 22RV1 cells; assay type: cell-based; settings: 2 μM, 24 h
Method: as §1

Compound	bioavailability [1] [%]	AUC(0-t) [1] [ng·h/mL]	DC50 [2] [µM]	IC50 [3] [nM]	degradation effect on AR-FL (Full-length AR (AR-FL))	degradation effect on AR-Vs [4]
CC#Cc1cc(C(F)(F)F)ccc1NC(=O)C(C)(C)n1cc(C#CC2CN(c3ccc4c(c3)C(=O)N(C3CCC(=O)NC3=O)C4=O)C2)cn1 (stereo not shown) [Compound 118, 2-(4-((1-(2-(2,6-dioxopiperidin-3-yl)-1,3-dioxoisoindolin-5-yl)azetidin-3-yl)ethynyl)-1H-pyrazol-1-yl)-2-methyl-N-(2-(prop-1-yn-1-yl)-4-(trifluoromethyl)phenyl) propanamide]	52.4 ± 3.1	14000 ± 816	< 0.5	< 50		
CC(C)(C(=O)Nc1ccc(C(F)(F)F)cc1-c1nccs1)n1cc(C#CC2CN(c3ccc4c(c3)C(=O)N(C3CCC(=O)NC3=O)C4=O)C2)cn1 (stereo not shown) [Compound 155, 2-(4-((1-(2-(2,6-dioxopiperidin-3-yl)-1,3-dioxoisoindolin-5-yl)azetidin-3-yl)ethynyl)-1H-pyrazol-1-yl)-2-methyl-N-(2-(thiazol-2-yl)-4-(trifluoromethyl)phenyl) propanamide]	37.9 ± 2.2	12000 ± 711	< 0.5	< 50		
CC(C)(C(=O)Nc1ccc(C#N)c(C2CC2)c1)n1cc(C#CC2CN(c3ccc4c(c3)C(=O)N(C3CCC(=O)NC3=O)C4=O)C2)cn1 (stereo not shown) [Compound 29, N-(4-cyano-3-cyclopropylphenyl)-2-(4-((1-(2-(2,6-dioxopiperidin-3-yl)-1,3-dioxoisoindolin-5-yl)azetidin-3-yl)ethynyl)-1H-pyrazol-1-yl)-2-methylpropanamide]		48700 ± 7060	< 0.5	< 100		
CC(C)(C(=O)Nc1ccc(C#N)c2ccccc12)n1cc(C#CC2CN(c3ccc4c(c3)C(=O)N(C3CCC(=O)NC3=O)C4=O)C2)cn1 (stereo not shown) [Compound 21, N-(4-cyanonaphthalen-1-yl)-2-(4-((1-(2-(2,6-dioxopiperidin-3-yl)-1,3-dioxoisoindolin-5-yl)azetidin-3-yl)ethynyl)-1H-pyrazol-1-yl)-2-methylpropanamide]	69.1 ± 12	15200 ± 2610	< 0.5	< 50		
CC(C)(C(=O)Nc1cnc(C#N)c(C(F)(F)F)c1)n1cc(C#CC2CN(c3ccc4c(c3)C(=O)N(C3CCC(=O)NC3=O)C4=O)C2)cn1 (stereo not shown) [Compound 4, N-(6-cyano-5-(trifluoromethyl)pyridin-3-yl)-2-(4-((1-(2-(2,6-dioxopiperidin-3-yl)-1,3-dioxoisoindolin-5-yl)azetidin-3-yl)ethynyl)-1H-pyrazol-1-yl)-2-methylpropanamide]	51.2 ± 9.7	29400 ± 5590			significant degradation effect	significant degradation effect
CC(C)(C(=O)Nc1ccc(C(F)(F)F)cc1Cl)n1cc(C#CC2CN(c3cc4c(cc3F)C(=O)N(C3CCC(=O)NC3=O)C4=O)C2)cn1 (stereo not shown) [Compound 15]	73.2 ± 10	10200 ± 1460	< 0.5	< 100		
CC(C)(C(=O)Nc1ccc(C(F)(F)F)cc1C1CC1)n1cc(C#CC2CN(c3ccc4c(c3)C(=O)N(C3CCC(=O)NC3=O)C4=O)C2)cn1 (stereo not shown) [Compound 30, N-(2-cyclopropyl-4-(trifluoromethyl)phenyl)-2-(4-((1-(2-(2,6-dioxopiperidin-3-yl)-1,3-dioxoisoindolin-5-yl)azetidin-3-yl)ethynyl)-1H-pyrazol-1-yl)-2-methylpropanamide]	98.1 ± 6.6	22500 ± 1510	< 0.5	< 50		
CC(C)(C(=O)Nc1ccc(C(F)(F)F)cc1Cl)n1cc(C#CC2CN(c3ccc4c(c3)C(=O)N(C3CCC(=O)NC3=O)C4=O)C2)cn1 (stereo not shown) [Compound 11, N-(2-chloro-4-(trifluoromethyl)phenyl)-2-(4-((1-(2-(2,6-dioxopiperidin-3-yl)-1,3-dioxoisoindolin-5-yl)azetidin-3-yl)ethynyl)-1H-pyrazol-1-yl)-2-methylpropanamide]	90.9 ± 2.4	16000 ± 431	< 0.5	< 50		
